Tests used:
[1] = tested on: mice overexpressing CRH in the forebrain; conditions: cited from earlier work
CRH-COE^CNS mice = test: REMS activity by EEG/EMG recording in CRH-COE^CNS mice and control littermates; conditions: for REMS activity: treatment days vs baseline
Protocol: (§1) Experiments were conducted with two different mouse lines of excessive central CRH secretion and their respective control littermates (CL). Mice of the CRH-COE^CNS line are characterised by CRH-overexpression within the whole CNS, whereas mice of the Cor26 CRH line display a CRH-overexpression specific to CRH-ergic neurons of the CNS. Three different CRHR1 antagonists were tested. […] In all cases, animals were left to recover from EEG/EMG-electrode implantation for two weeks, after which two days of baseline recording were initiated. Treatment with CRH-R1 antagonist or respective vehicle control commenced thereafter for five consecutive days. Antagonists were applied through the drinking water at a daily dose of 50 mg/kg body weight. EEG and EMG recordings were manually scored as wake, non-REMS (NREMS), and REMS in four second epochs by an experienced evaluator.

Cor26 CRH mice = test: REMS levels by EEG/EMG recording in Cor26 CRH mice and control littermates; conditions: for REMS activity / REMS levels: CRH-overexpressing Cor26 CRH mice, 50 mg/kg/d via drinking water
Protocol: as §1

Row | SMILES | REM enhancement [1] | REMS activity in control littermates (CRH-COE^CNS mice; CL (control) mice, 50 mg/kg/d via drinking water) | treatment day of strongest suppression of REMS activity (CRH-COE^CNS mice; CRH-COE^CNS mice, 50 mg/kg/d) | REMS activity (CRH-COE^CNS mice; CRH-COE^CNS mice, 50 mg/kg/d via drinking water, 50 mg/kg/day) | REMS activity (CRH-COE^CNS mice; CRH-COE^CNS mice, 50 mg/kg/d via drinking water, listed as DMP696, 50 mg/kg/day) | REMS activity / REMS levels (Cor26 CRH mice; 50 mg/kg/day) | REMS activity / REMS levels (Cor26 CRH mice; listed as CP-316311, 50 mg/kg/day) | REMS levels, area under the curve (AUC) within the light period (Cor26 CRH mice; Cor26 CRH mice, baseline vs treatment day three, P=0.006)
1 | COCC(COC)Nc1nc(C)nc2c(-c3ccc(Cl)cc3Cl)c(C)nn12 [DMP-696] | could reverse the REM enhancement | only a mild suppression of REMS | treatment day three | significant decrease in REMS activity | suppressed | – | – | –
2 | CCC(CC)Oc1cc(C)nc(Oc2c(C)cc(C)cc2C)c1C [CP-316,311] | – | – | – | – | – | apparently seemed weak | suppressed | significant decrease

Source: US20150094310A1, “CRHR1 ANTAGONISTS FOR USE IN THE TREATMENT OF PATIENTS HAVING CRH OVERACTIVITY” (HOLSBOERMASCHMEYER NEUROCHEMIE GMBH, priority 2012, published 2015)
